Measured values reported in patent publication US20260373156A1, “CANCER TREATMENTS USING MTA-COOPERATIVE PRMT5 INHIBITORS” (AMGEN INC., priority 2022, published 2026).
Values joined by “and” are separate entries in the source; they are usually repeats but may differ in a detail not shown here. Identical values can stand only once. Like-named read-outs stand apart in the source and are kept apart here.

Experiments:
A549 cells [1] = assay: CellTiter-Glo viability and CalcuSyn synergy, PRMT5 inhibitor + KRAS G12X inhibitor, 6 days; conditions: a549 cells, 8640 min, 0.4374 µM
PSN1 cells = assay: CellTiter-Glo viability and CalcuSyn synergy, PRMT5 inhibitor + KIF18A, 6 days; conditions: psn1 cells, 8640 min, 0.0767 µM
LU99 NSCLC xenografts [2] = conditions: mouse, in vivo
MIAPACA2T2 cells [3] = assay: CellTiter-Glo viability and CalcuSyn synergy, PRMT5 inhibitor + sotorasib, 6 days; conditions: miapaca2t2 cells, 8640 min, 0.4374 µM
HCC1395 cells = assay: CellTiter-Glo viability and CalcuSyn synergy, PRMT5 inhibitor + olaparib, 6 days; conditions: hcc1395 cells, 8640 min, 0.7673 µM
LU99 cells = assay: CellTiter-Glo viability and CalcuSyn synergy, PRMT5 inhibitor + sotorasib, 6 days
LU5268 NSCLC xenografts = conditions: mouse, in vivo
MiaPaCa2 PDAC xenografts = test system: MiaPaCa2 PDAC xenografts; parameters: species or system Female NOD/SCID mice; conditions: mouse, in vivo
Procedure: FIG. 6A: Mice were implanted with LU99 (NSCLC CDX) tumors, FIG. 6B: LU5268 (NSCLC PDX) tumors. FIG. 6C: MiaPaCa2 (PDAC CDX) tumors. Vehicle, Compound G, and sotorasib were dosed as indicated. Data represent mean±SD, n=10 for each group.
10 Female NOD/SCID mice were implanted with LU99 NSCLC, LU5268 NSCLC or MisPaCa2 PDAC tumor xenografts. Mean tumor volumes for each grouping were between 100-200 mm^3. Mice were allocated to the four different study groups by tumor volume and dosing was initiated with Vehicle, Compound G (100 mg/kg), sotorasib (100 mg/kg) orally once daily or a combination of Compound G (100 mg/kg) with sotorasib (100 mg/kg). Plotted data represents the TGI (tumor growth inhibition), n=10 for each group.

H292 cells = assay: CellTiter-Glo viability and CalcuSyn synergy, PRMT5 inhibitor + palbociclib, 6 days; conditions: h292 cells, 8640 min, 0.1212 µM
H1650 cells [4] = type: cell-based; conditions: 8640 min, 0.44 µM
Procedure: (§1) A MTAP-null NSCLC cancer cell line (H1650) was treated with the combination of Compound G and osimertinib for 6 days. Compound G was performed at a 1.9-fold dilution series and the combination partner was performed at 1.2 to 1.7 fold dilution series to create an 8×10 dose matrix including DMSO-only controls. Cell viability was measured by the CellTiter-Glo Luminescence assay. Raw luminescent values were converted to fraction affected (Fa) with the following equation: […]
(§2) Synergy analysis was performed using the CalcuSyn software to determine CI scores based on the drug concentrations used and corresponding Fa values.

A549 cells [5] = assay: CellTiter-Glo viability and CalcuSyn synergy, PRMT5 inhibitor + palbociclib, 6 days; conditions: a549 cells, 8640 min, 0.437382 µM
LU99 NSCLC xenografts [6] = conditions: mouse, in vivo; remark: listed apart in the source
MIAPACA2T2 cells [7] = assay: CellTiter-Glo viability and CalcuSyn synergy, PRMT5 inhibitor + trametinib, 6 days
A549 cells [8] = assay: as above
H1650 cells [9] = type: cell-based
Procedure: as §1, with “erlotinib” for “osimertinib”
as §2

MIAPACA2T2 cells [10] = assay: CellTiter-Glo viability and CalcuSyn synergy, PRMT5 inhibitor + KIF18A, 6 days

Nc1nc2cnc(C(=O)N3CCOC[C@@H]3c3ccc(C(F)(F)F)cc3)cc2c2c1COC2 [Compound G]
Combination Fa (A549 cells [1]): 0.8549 and 0.7807 and 0.755 and 0.7181 and 0.6897 and 0.833 and 0.8551 | Combination Fa (PSN1 cells): 0.858 and 0.868 and 0.837 and 0.811 and 0.781 and 0.923 and 0.86 | tumor growth inhibition (LU99 NSCLC xenografts [2]): significantly inhibits tumor growth | Combination Fa (MIAPACA2T2 cells [3]): 0.818 and 0.785 and 0.712 and 0.633 and 0.519 and 0.829 and 0.84 | Combination Fa (HCC1395 cells): 0.6464 and 0.5971 and 0.5852 and 0.5488 and 0.55 and 0.7334 and 0.6661 | Computed CI value (LU99 cells): 0.276 and 0.234 and 0.289 and 0.249 and 0.281 and 0.424 and 0.294 | Combination Fa (LU99 cells; lu99 cells, 8640 min, 0.1458 µM): 0.817 and 0.821 and 0.794 and 0.804 and 0.787 and 0.825 | tumor growth inhibition (LU5268 NSCLC xenografts): significantly inhibits tumor growth | tumor growth inhibition (MiaPaCa2 PDAC xenografts): significantly inhibits tumor growth | Combination Fa (H292 cells): 0.8154 and 0.7885 and 0.7925 and 0.7748 and 0.7116 and 0.8564 and 0.824 | Combination Fa (H1650 cells [4]): 0.74 and 0.73 and 0.69 and 0.67 and 0.66 and 0.88 and 0.76 | Combination Fa (A549 cells [5]): 0.717 and 0.713 and 0.732 and 0.683 and 0.682 and 0.86 and 0.735 | anti-tumor activity (LU99 NSCLC xenografts [6]): significant anti-tumor activity versus either single agent alone | Computed CI value (MIAPACA2T2 cells [7]): 0.579 and 0.774 and 0.806 and 0.84 and 0.868 and 0.784 and 0.557 | Combination Fa (MIAPACA2T2 cells [7]; miapaca2t2 cells, 8640 min, 0.83102 µM): 0.792 and 0.69 and 0.63 and 0.583 and 0.551 and 0.868 and 0.85 | Computed CI value (A549 cells [8]): 0.276 and 0.365 and 0.349 and 0.48 and 0.512 and 0.43 and 0.384 | Combination Fa (A549 cells [8]; a549 cells, 8640 min, 0.4374 µM): 0.8494 and 0.7817 and 0.7499 and 0.6788 and 0.6495 and 0.894 and 0.8631 | Computed CI value (H1650 cells [9]): 0.40 and 0.29 and 0.34 and 0.35 and 0.52 and 0.48 | Combination Fa (H1650 cells [9]; h1650 cells, 8640 min, 0.23 µM): 0.73 and 0.67 and 0.64 and 0.59 and 0.79 and 0.75 | Computed CI value (MIAPACA2T2 cells [10]): 0.561 and 0.6 and 0.594 and 0.774 and 0.68 and 1.044 and 0.802 | Combination Fa (MIAPACA2T2 cells [10]; miapaca2t2 cells, 8640 min, 0.437381 µM): 0.7856 and 0.6938 and 0.6123 and 0.4815 and 0.4538 and 0.85 and 0.8122
